In publication PMC10835127, “Viruses traverse the human proteome through peptide interfaces that can be biomimetically leveraged for drug discovery” (Proceedings of the National Academy of Sciences of the …, 2024):
Like-named read-outs stand apart in the source and are kept apart here.

What was measured:
[1] = tested on: F. novicida (strain U112); type: cell-based
HIV1 strain NL4-3 = type: cell-based; conditions: normalized mean of HIV1 replication readout
HCV replicon = type: cell-based; conditions: for HCV Norm MEAN: normalized mean of HCV replicon readout
influenza A H1N1 virus = conditions: 48 hr post-treatment, A549
EBV = conditions: normalized mean of EBV replication readout

Substance | Francisella novicida Norm AUC [1] | HIV1 Norm MEAN (HIV1 strain NL4-3; peptide screen) | HCV Norm MEAN (HCV replicon; peptide screen) | Neuraminidase activity normalized to vehicle (influenza A H1N1 virus; 200 µM peptide) | Neuraminidase activity normalized to vehicle (influenza A H1N1 virus; 0,823 µM peptide) | Neuraminidase activity normalized to vehicle (influenza A H1N1 virus; 22,2 µM peptide) | Neuraminidase activity normalized to vehicle (influenza A H1N1 virus; 2,4691 µM peptide) | Neuraminidase activity normalized to vehicle (influenza A H1N1 virus; 7,4074 µM peptide) | Neuraminidase activity normalized to vehicle (influenza A H1N1 virus; 66,6667 µM peptide) | EBV Norm MEAN (EBV; peptide screen) | HIV1 Norm MEAN (HIV1 strain NL4-3) | HCV Norm MEAN (HCV replicon) | EBV Norm MEAN (EBV) | activity in HCV screen (in words) (HCV replicon; 20 µM peptide, Huh7, replicon luciferase) | inhibition of PI incorporation in F. novicida infected BMDMs (in words) [1]
CPEP136: peptide of the viral peptide library; sequence page not shown (VTNDCPNSSIVYE) | 1.265 | 0.7957 | 0.4475 | 0,9602 | 0,8343 | 0,8466 | 0,9183 | 0,8168 | 0,9818 | 1.578 |  |  |  |  | 
RPEPTAPPEE [CPEP116] | 0.6494 |  |  | 0,7624 | 0,9564 | 0,683 | 0,8677 | 0,7015 | 0,6644 |  | 0.3699 | 1.054 | 0.4152 |  | 
CMSCCRSSRTRRETQL [CPEP57] | 0.5573 | 1.032 | 0.7555 | 0,9828 | 1,0672 | 1,1821 | 0,702 | 1,111 | 0,9599 | 0.8928 |  |  |  |  | 
RQARRNRRR [CPEP110] | 1.637 |  |  | 0,8723 | 1,0272 | 0,8952 | 0,9228 | 0,9411 | 0,8493 |  | 0.3127 | 0.05205 | 2.204 |  | 
LRKRRKRL [CPEP145] | 1.33 |  |  | 0,7911 | 0,8361 | 0,839 | 0,7253 | 0,7634 | 0,9146 |  | 1.45 | 0.1172 | 2.86 | inhibition of RNA | 
CPEP69: peptide of the viral peptide library; sequence page not shown (MRHIICHGGVITEE) | 1.041 | 0.7189 | 0.5472 | 1,1006 | 0,9574 | 1,0597 | 1,0075 | 1,0635 | 1,1613 | 0.4275 |  |  |  |  | 
ACTNCYCKKCCFHCQVC [CPEP100] | 1.04 | 0.1546 | 0.4928 | 1,0893 | 1,092 | 1,1329 | 0,9938 | 1,0674 | 1,0274 | 1.687 |  |  |  |  | 
DLYCYEQLNDSSEEEDE [CPEP125] | 1.158 | 1.6 | 0.9031 | 0,7813 | 1,0772 | 1,1403 | 0,9577 | 1,1015 | 0,8979 | 1.019 |  |  |  |  | 
SLQYLALAALITPKK [CPEP46] | 0.3644 | 2.169 | 0.6647 | 0,1529 | 0,9309 | 0,9118 | 1,043 | 1,0188 | 0,8482 | 0.9835 |  |  |  |  | 
CPEP96: peptide of the viral peptide library; sequence page not shown (GRKKRRQRRRAHQ) | 1.029 | 0.5669 | 0.3919 | 0,8043 | 0,9089 | 0,9748 | 0,9539 | 0,8942 | 0,9344 | 1.164 |  |  |  |  | 
GPSDSGAGRAAEDRKCL [CPEP137] | 1.181 | 0.7725 | 0.6634 | 1,0777 | 1,0904 | 1,189 | 0,9326 | 1,1347 | 1,0155 | 1.2267 |  |  |  |  | 
EDPNEE [CPEP68] | 0.6174 |  |  | 0,7574 | 0,7462 | 0,8576 | 0,7296 | 0,7652 | 0,95 |  | 1.205 | 0.2553 | 0.4757 |  | 
CPEP74: peptide of the viral peptide library; sequence page not shown (ALGISYGRKKRRQ) | 1.149 |  |  | 0,8907 | 0,913 | 0,9469 | 1,0192 | 0,9165 | 0,9895 |  | 1.112 | 0.6842 | 1.663 |  | 
SKMQL [CPEP150] | 0.5976 |  |  | 1,0149 | 0,912 | 0,9305 | 0,7746 | 0,8703 | 0,9907 |  | 1.8032 | 0.2118 | 1.198 |  | 
WKSKKTP [CPEP78] | 0.7597 |  |  | 0,663 | 0,9859 | 0,8841 | 0,8283 | 0,8644 | 0,9037 |  | 1.618 | 0.1248 | 1.01 |  | 
CPEP98: peptide of the viral peptide library; sequence page not shown (PLPPTKAPPIPPPR) | 1.1759 | 0.2763 | 0.3984 | 1,0266 | 0,8951 | 0,9384 | 0,9959 | 0,9005 | 0,9857 | 0.8005 |  |  |  |  | 
ISNLPYTIKYKIFEQQ [CPEP120] | 0.5785 | 3.21 | 0.3919 | 1,0456 | 1,0562 | 1,193 | 0,9901 | 1,0754 | 1,0268 | 1.211 |  |  |  |  | 
LGQGVSIEW [CPEP122] | 1.0126 |  |  | 0,6921 | 1,0256 | 0,854 | 0,9073 | 0,9191 | 0,7889 |  | 0.4311 | 0.594 | 0.7196 |  | 
WRHRAR [CPEP113] | 0.358 |  |  | 0,9723 | 0,965 | 0,979 | 0,9338 | 0,9116 | 1,0465 |  | 0.4362 | 0.1192 | 1.761 |  | most
TGERDW [CPEP119] | 1.661 |  |  | 0,8047 | 0,8876 | 0,8371 | 0,7125 | 0,8133 | 0,8609 |  | 0.9503 | 0.3105 | 0.6578 |  | 
